Measurements as given in patent US11731977B2, “SGC stimulators” (Cyclerion Therapeutics, Inc., priority 2016, dated 2023).

Biological target: T1, sGC enzyme (Homo sapiens, UniProt Q02108+Q02153)
T1 construct: sGC enzyme activity values in HEK cells, determined by the GloSensor assay; host or cells: HEK293 cells stably expressing GloSensor 40F cGMP biosensor
T1 sequence (Q02153 1-619): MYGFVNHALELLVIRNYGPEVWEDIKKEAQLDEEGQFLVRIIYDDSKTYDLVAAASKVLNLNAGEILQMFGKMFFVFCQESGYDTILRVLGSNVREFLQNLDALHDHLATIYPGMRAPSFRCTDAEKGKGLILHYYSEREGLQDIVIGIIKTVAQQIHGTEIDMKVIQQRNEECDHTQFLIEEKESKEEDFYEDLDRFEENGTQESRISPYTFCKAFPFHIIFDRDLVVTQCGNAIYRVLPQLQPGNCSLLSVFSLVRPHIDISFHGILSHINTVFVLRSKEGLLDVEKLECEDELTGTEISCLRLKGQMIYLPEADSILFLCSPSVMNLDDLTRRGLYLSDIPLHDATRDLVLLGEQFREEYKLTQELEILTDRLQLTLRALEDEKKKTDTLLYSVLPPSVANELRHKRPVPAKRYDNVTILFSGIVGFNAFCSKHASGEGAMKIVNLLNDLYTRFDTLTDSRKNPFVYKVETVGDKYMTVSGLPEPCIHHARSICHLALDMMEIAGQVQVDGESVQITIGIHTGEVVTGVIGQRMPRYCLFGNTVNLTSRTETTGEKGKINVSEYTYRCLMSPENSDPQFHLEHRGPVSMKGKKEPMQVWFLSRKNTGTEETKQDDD
T1 sequence (Q02108 1-690): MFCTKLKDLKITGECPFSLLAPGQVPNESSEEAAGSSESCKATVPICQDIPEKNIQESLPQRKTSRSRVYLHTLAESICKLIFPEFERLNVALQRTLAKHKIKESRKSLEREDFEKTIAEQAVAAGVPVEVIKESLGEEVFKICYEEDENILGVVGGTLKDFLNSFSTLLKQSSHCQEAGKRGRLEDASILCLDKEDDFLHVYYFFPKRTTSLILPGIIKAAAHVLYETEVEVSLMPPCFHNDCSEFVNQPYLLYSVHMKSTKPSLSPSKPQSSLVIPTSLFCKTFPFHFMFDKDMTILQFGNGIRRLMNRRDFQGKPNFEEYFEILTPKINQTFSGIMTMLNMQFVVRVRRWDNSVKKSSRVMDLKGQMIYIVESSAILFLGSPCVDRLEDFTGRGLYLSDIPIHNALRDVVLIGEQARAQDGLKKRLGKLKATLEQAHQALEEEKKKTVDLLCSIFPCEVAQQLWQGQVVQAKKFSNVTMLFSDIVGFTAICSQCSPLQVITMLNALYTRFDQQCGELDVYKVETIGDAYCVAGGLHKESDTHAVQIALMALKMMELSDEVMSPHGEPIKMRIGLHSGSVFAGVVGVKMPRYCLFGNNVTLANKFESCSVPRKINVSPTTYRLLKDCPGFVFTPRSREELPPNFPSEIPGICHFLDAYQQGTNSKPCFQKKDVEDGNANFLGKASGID
Test: cGMP GloSensor cell-based assay, 384-well format (Example 2a)
Conditions: HEK293 GloSensor 40F cGMP cells; 10 μM DETA-NONOate; 50% of high control (30 μM Compound Y); read-out: Abs EC50
From the text: Human embryonic kidney cells (HEK293) cells expressing GloSensor™ 40F cGMP (Part No: CS182801, Promega) were used to evaluate the activity of test compounds. The luminescent biosensors (engineered luciferase) that were incorporated into these cells detect cGMP formed by the compounds stimulating the sGC enzyme and emit luminescence.
cGMP GloSensor cells were maintained in Dulbecco's Modification of Eagle's Medium (DMEM) supplemented with fetal bovine serum (FBS, 10% final) and hygromycine (200 ug/ml). The day before assay, cells were plated in DMEM with 10% FBS in a 50 μL volume at a density of 1.5×10^4 cells/well in a poly-D-lysine coated 384-well flat white-bottom plate (Corning Cat No 35661). Cells were incubated overnight at 37° C. in a humidified chamber with 5% CO2. The next day, medium was removed and cells were replaced with 40 ul/well of GloSensor™, 2 mM (Promega Cat No E1291). Cells were treated for 90 minutes at 25° C. to allow the substrate to equilibrate in the cells. Test compounds and Diethylenetriamine NONOate (DETA-NONOate, or DETA-NO) was diluted to 3 mM (20×) in serum-free CO2 independent medium and serially diluted at 4× dilutions to create 5× dose curve from which 10 ul was added to the wells (x μM concentration for test compound solution and 10 μM concentration for DETA-NONOate solution; wherein x is one of the following final concentrations: 30000 nM, 7500 nM, 1875 nM, 468.8 nM, 117.2 nM, 29.29 nM, 7.320 nM, 1.830 nM, 0.460 nM, 0.114 nM, and 0.029 nM).
For the kinetics studies, luminescense was measured right away for 0.2 sec per well with Envision (Perkin Elmer). For endpoint SAR screening, data were collected after 55 min incubation at room temperature.
Data were normalized to a high control using the following equation: 100*(Sample−Low Control)/(High Control−Low Control), where the low control is the average of 16 samples treated with 1% DMSO, and the high control is the average of 16 samples treated with 30 μM of Compound Y depicted below. Data were fit using a 4-parameter fit (log(agonist) vs. response—variable slope) using GraphPad Prism Software v.5. n=2 for all compounds. The Absolute (Abs) EC50 was interpolated from the curve fit and is defined as the concentration at which a given compound elicits 50% of the high control response after data normalization as indicated above. Compounds failing to elicit a minimum response of 50% are reported as >30 μM or ND. For compounds run in duplicate or n higher than 2, the result herein given is the geometric mean of the several results obtained.

Molecule `Fc1ccccc1Cc1nc(-c2nc(C3CC3(F)F)n[nH]2)cn2ccnc12` (racemic) [Compound I-64, rac-6-(3-(2,2-Difluorocyclopropyl)-1H-1,2,4-triazol-5-yl)-8-(2-fluorobenzyl)imidazo[1,2-a]pyrazine] has an EC50 of 100 to 1000 nM.
With `Cc1n[nH]c(-c2cn3ccnc3c(Cc3ccccc3F)n2)n1` [Compound I-4, 8-(2-fluorobenzyl)-6-(3-methyl-1H-1,2,4-triazol-5-yl)imidazo[1,2-a]pyrazine] the EC50 was 100 to 1000 nM.
`Fc1cccc(Cc2nc(-c3nc(C(F)F)n[nH]3)cn3ncnc23)c1F` [Compound I-17, 8-(2,3-Difluorobenzyl)-6-(3-(difluoromethyl)-1H-1,2,4-triazol-5-yl)-[1,2,4]triazolo[1,5-a]pyrazine] was tested, and the EC50 was no more than 100 nM.
Molecule `Fc1cccc(Cc2nc(-c3nc(C(F)(F)F)n[nH]3)cn3ncnc23)c1F` [Compound I-18, 8-(2,3-Difluorobenzyl)-6-(3-(trifluoromethyl)-1H-1,2,4-triazol-5-yl)-[1,2,4]triazolo[1,5-a]pyrazine] has an EC50 of no more than 100 nM.
Molecule `Fc1cccc(F)c1Cc1nc(-c2nc(C(F)(F)F)n[nH]2)cn2ccnc12` [Compound I-19, 8-(2,6-Difluorobenzyl)-6-(3-(trifluoromethyl)-1H-1,2,4-triazol-5-yl)imidazo[1,2-a]pyrazine] has an EC50 greater than 1000 nM.
`Fc1cccc(F)c1Cc1nc(-c2nc(C(F)F)n[nH]2)cn2ccnc12` [Compound I-20, 8-(2,6-Difluorobenzyl)-6-(3-(difluoromethyl)-1H-1,2,4-triazol-5-yl)imidazo[1,2-a]pyrazine] showed an EC50 greater than 1000 nM.
`Fc1cccc(Cc2nc(-c3nc(C(F)F)n[nH]3)cn3ncnc23)c1` [Compound I-21, 6-(3-(Difluoromethyl)-1H-1,2,4-triazol-5-yl)-8-(3-fluorobenzyl)-[1,2,4]triazolo[1,5-a]pyrazine] showed an EC50 of no more than 100 nM.
With `Fc1cccc(Cc2nc(-c3nc(C(F)(F)F)n[nH]3)cn3ncnc23)c1` [Compound I-22, 8-(3-Fluorobenzyl)-6-(3-(trifluoromethyl)-1H-1,2,4-triazol-5-yl)-[1,2,4]triazolo[1,5-a]pyrazine] the EC50 was no more than 100 nM.
For `Fc1ccc(F)c(Cc2nc(-c3nc(C(F)F)n[nH]3)cn3ncnc23)c1` [Compound I-23, 8-(2,5-Difluorobenzyl)-6-(3-(difluoromethyl)-1H-1,2,4-triazol-5-yl)-[1,2,4]triazolo[1,5-a]pyrazine], the EC50 was no more than 100 nM.
`Fc1cc(F)cc(Cc2nc(-c3nc(C(F)(F)F)n[nH]3)cn3ncnc23)c1` [Compound I-24, 8-(3,5-Difluorobenzyl)-6-(3-(trifluoromethyl)-1H-1,2,4-triazol-5-yl)-[1,2,4]triazolo[1,5-a]pyrazine] was tested, and the EC50 was no more than 100 nM.
Work on `Fc1cc(F)cc(Cc2nc(-c3nc(C(F)F)n[nH]3)cn3ncnc23)c1` [Compound I-25, 8-(3,5-Difluorobenzyl)-6-(3-(difluoromethyl)-1H-1,2,4-triazol-5-yl)-[1,2,4]triazolo[1,5-a]pyrazine] yielded an EC50 of no more than 100 nM.
For `Fc1ccccc1Cc1nc(-c2nc(C(F)F)n[nH]2)cn2ncnc12` [Compound I-26, 6-(3-(Difluoromethyl)-1H-1,2,4-triazol-5-yl)-8-(2-fluorobenzyl)-[1,2,4]triazolo[1,5-a]pyrazine], the EC50 was no more than 100 nM.
Work on `Fc1cc(F)cc(Cc2nc(-c3nc(C(F)(F)F)n[nH]3)cn3ccnc23)c1` [Compound I-29, 8-(3,5-Difluorobenzyl)-6-(3-(trifluoromethyl)-1H-1,2,4-triazol-5-yl)imidazo[1,2-a]pyrazine] yielded an EC50 of no more than 100 nM.
Work on `Fc1cc(F)cc(Cc2nc(-c3nc(C(F)F)n[nH]3)cn3ccnc23)c1` [Compound I-30, 8-(3,5-Difluorobenzyl)-6-(3-(difluoromethyl)-1H-1,2,4-triazol-5-yl)imidazo[1,2-a]pyrazine] yielded an EC50 of no more than 100 nM.
`Cc1cn2cc(-c3nc(C(F)(F)F)n[nH]3)nc(Cc3ccccc3F)c2n1` [Compound I-31, 8-(2-Fluorobenzyl)-2-methyl-6-(3-(trifluoromethyl)-1H-1,2,4-triazol-5-yl)imidazo[1,2-a]pyrazine] gave an EC50 of 100 to 1000 nM.
In the case of `Cc1cn2cc(-c3nc(C(F)F)n[nH]3)nc(Cc3ccccc3F)c2n1` [Compound I-32, 6-(3-(Difluoromethyl)-1H-1,2,4-triazol-5-yl)-8-(2-fluorobenzyl)-2-methylimidazo[1,2-a]pyrazine], the EC50 is reported as greater than 1000 nM.
`Fc1ccc(F)c(Cc2nc(-c3nc(C(F)(F)F)n[nH]3)cn3ncnc23)c1` [Compound I-33, 8-(2,5-Difluorobenzyl)-6-(3-(trifluoromethyl)-1H-1,2,4-triazol-5-yl)-[1,2,4]triazolo[1,5-a]pyrazine] gave an EC50 of no more than 100 nM.
`Cc1c(F)cc(Cc2nc(-c3nc(C(F)(F)F)n[nH]3)cn3ccnc23)cc1F` [Compound I-34, 8-(3,5-Difluoro-4-methylbenzyl)-6-(3-(trifluoromethyl)-1H-1,2,4-triazol-5-yl)imidazo[1,2-a]pyrazine] gave an EC50 of no more than 100 nM.
`Cc1c(F)cc(Cc2nc(-c3nc(C(F)F)n[nH]3)cn3ccnc23)cc1F` [Compound I-35, 8-(3,5-Difluoro-4-methylbenzyl)-6-(3-(difluoromethyl)-1H-1,2,4-triazol-5-yl)imidazo[1,2-a]pyrazine] showed an EC50 of no more than 100 nM.
With `Cn1cnc2c(Cc3ccccc3F)nc(-c3nc(C(F)(F)F)n[nH]3)cc21` [Compound I-36, 4-(2-Fluorobenzyl)-1-methyl-6-(3-(trifluoromethyl)-1H-1,2,4-triazol-5-yl)-1H-imidazo[4,5-c]pyridine] the EC50 was greater than 1000 nM.
In the case of `Cn1cnc2c(Cc3ccccc3F)nc(-c3nc(C(F)(F)F)n[nH]3)nc21` [Compound I-37, 6-(2-Fluorobenzyl)-9-methyl-2-(3-(trifluoromethyl)-1H-1,2,4-triazol-5-yl)-9H-purine], the EC50 is reported as greater than 1000 nM.
With `Cc1nc(-c2cn3ccnc3c(Cc3ccccc3F)n2)nn1CC(F)(F)F` [Compound I-38, 8-(2-fluorobenzyl)-6-(5-methyl-1-(2,2,2-trifluoroethyl)-1H-1,2,4-triazol-3-yl)imidazo[1,2-a]pyrazine] the EC50 was no more than 100 nM.
Work on `Cc1nc(-c2cn3ccnc3c(Cc3ccccc3F)n2)nn1Cc1ccc(F)cc1` [Compound I-41, 8-(2-Fluorobenzyl)-6-(1-(4-fluorobenzyl)-5-methyl-1H-1,2,4-triazol-3-yl)imidazo[1,2-a]pyrazine] yielded an EC50 of no more than 100 nM.
